The results in this text go back to patent US6617444B1, “Dinucleotide tetraphosphate crystals” (Yamasa Corporation, priority 1999, dated 2003).

Data set [1] can be described thus: Hygroscopicity: standing at controlled temperature and relative humidity. The data set is classed as physicochemical. As for the experimental part: dCP4U.4Na crystals (decahydrate) having a water content of approximately 17.4% were allowed to stand for two days under the following conditions a), b) and c): a) 25° C. and a relative humidity of 57%; b) 25° C. and a relative humidity of 75%; c) 25° C. and a relative humidity of 93%. […] The crystals have proven to be stable and to have no hygroscopicity. In addition, the same crystals were allowed to stand for seven days under the following severe conditions d): d) 40° C. and a relative humidity of 75%.

The nature of data set [2]: Stability: acceleration test, sealed bottles stored at 60° C. The data set is classed as physicochemical. The settings on record: sealed bottle, 13 days at 60° C. (acceleration test). As for the experimental part:
dCP4U.4Na crystals (decahydrate) and a freeze-dried product were individually placed in bottles, which were then sealed and stored for 13 days at 60° C. (acceleration test).

Where [3] appears, read: two days, 25° C., relative humidity 75%.
[4] abbreviates: two days, 25° C., relative humidity 93%.

For the compound `Nc1ccn([C@H]2CC(O)[C@@H](COP(=O)(O)OP(=O)(O)OP(=O)(O)OP(=O)(O)OC[C@H]3O[C@@H](n4ccc(=O)[nH]c4=O)C(O)C3O)O2)c(=O)n1` (stereo partly drawn) [dCP4U.4Na crystals (decahydrate), p^1-(2′-deoxycytidine 5′-)P^4-(uridine 5′-)tetraphosphate], the “change on standing under severe conditions” value in data set [1] (seven days, 40° C., relative humidity 75%) is reported as “No change was observed”. Moreover, the “decomposition or change in weight on standing (hygroscopicity)” value in data set [1] (two days, 25° C., relative humidity 57%) was “No decomposition or change in weight was observed”. For the same compound, the “decomposition or change in weight / state on standing (hygroscopicity)” value in data set [1] (setting [3]) and in data set [1] (setting [4]) was “No decomposition or change in weight was observed” each time. In addition, the decomposition on storage result in data set [2] is reported as “No decomposition”.
Consider `Nc1ccn([C@H]2CC(O)[C@@H](COP(=O)(O)OP(=O)(O)OP(=O)(O)OP(=O)(O)OC[C@H]3O[C@@H](n4ccc(=O)[nH]c4=O)C(O)C3O)O2)c(=O)n1` (stereo partly drawn) [freeze-dried product, p^1-(2′-deoxycytidine 5′-)P^4-(uridine 5′-)tetraphosphate, reference compound], for which the “decomposition or change in weight / state on standing (hygroscopicity)” value in data set [1] (setting [3]) was “assumed a mud-like state due to gradual increase in water content”. Besides, the “decomposition or change in weight / state on standing (hygroscopicity)” value in data set [1] (setting [4]) is “assumed a mud-like state due to gradual increase in water content”. In data set [2], the decomposition on storage entry is reported as “partially decomposed” and the “purity loss on storage” value is listed as “approximately 2.2%”.
